Square brackets hold non-standard residues; d marks the D form. Peptide text beside a SMILES is read from it. * marks the point of attachment. Hydrocinnamoyl = O=C(CCc1ccccc1)*; Nle = CCCC[C@H](N)C(=O)O; Hexanoyl = CCCCCC(=O)*
Target: T1, PTH receptor, bovine renal cortical plasma membranes (Bos taurus, UniProt Q1LZF7)
T1 construct: from tissue; host or cells: bovine renal cortex (plasma membrane preparation)
T1 sequence (Q1LZF7 29-589): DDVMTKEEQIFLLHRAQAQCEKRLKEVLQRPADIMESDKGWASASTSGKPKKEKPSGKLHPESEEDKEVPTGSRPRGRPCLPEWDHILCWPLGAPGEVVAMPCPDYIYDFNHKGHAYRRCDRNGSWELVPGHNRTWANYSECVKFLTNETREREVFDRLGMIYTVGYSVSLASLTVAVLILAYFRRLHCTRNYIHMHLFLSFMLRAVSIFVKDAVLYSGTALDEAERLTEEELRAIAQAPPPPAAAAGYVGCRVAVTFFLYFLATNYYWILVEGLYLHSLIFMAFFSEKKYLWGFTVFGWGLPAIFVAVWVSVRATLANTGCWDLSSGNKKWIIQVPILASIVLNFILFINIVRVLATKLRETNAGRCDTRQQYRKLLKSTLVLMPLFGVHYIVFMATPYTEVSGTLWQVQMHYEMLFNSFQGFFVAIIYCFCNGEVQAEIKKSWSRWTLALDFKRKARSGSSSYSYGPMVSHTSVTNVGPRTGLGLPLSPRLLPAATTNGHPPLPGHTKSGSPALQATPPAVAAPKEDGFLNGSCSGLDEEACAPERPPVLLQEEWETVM
Assay: PTH binding assay in bovine renal membranes
Conditions: radioligand [Nle8,18,125I-Tyr34]bPTH(1-34)NH2, 30 min at 21° C.
Procedure: PTH analogues were analyzed in a new receptor assay reported in Goldman et al., Endocrin. 123: 1468-1475 (1988). The binding assay used [Nle^8,18,^125 I-Tyr^34 ]bPTH (1-34)NH2 which was purified by HPLC (Novapak C18, 32-35% CH3 CN in 0.1% TFA) and was stored as aliquots in 25 mM TrisHCl/1%BSA at -70° C. Bovine renal cortical plasma membranes were incubated with radioligand (25,000 cpm) in a Tris-containing buffer (250 ul) for 30 min. at 21° C. Once equilibrium was reached, bound and free radioligand were separated by centrifugation. High specific binding (85%) to bovine renal cortical membranes was obtained consistently.

SMILES	Kb
CCCC[C@H](NC(=O)CCc1ccccc1)C(=O)N[C@@H](Cc1c[nH]cn1)C(=O)N[C@@H](CC(N)=O)C(=O)N[C@@H](CC(C)C)C(=O)N[C@H](Cc1c[nH]c2ccccc12)C(=O)N[C@@H](CCCCNC(=O)CCc1ccccc1)C(=O)N[C@@H](Cc1c[nH]cn1)C(=O)N[C@@H](CC(C)C)C(=O)N[C@@H](CO)C(=O)N[C@@H](CO)C(=O)N[C@@H](CCCC)C(=O)N[C@@H](CCC(=O)O)C(=O)N[C@@H](CCCNC(=N)N)C(=O)N[C@H](C(=O)N[C@@H](CCC(=O)O)C(=O)N[C@@H](Cc1c[nH]c2ccccc12)C(=O)N[C@@H](CC(C)C)C(=O)N[C@@H](CCCNC(=N)N)C(=O)N[C@@H](CCCCN)C(=O)N[C@@H](CCCCN)C(=O)N[C@@H](CC(C)C)C(=O)N[C@@H](CCC(N)=O)C(=O)N[C@@H](CC(=O)O)C(=O)N[C@H](C(=O)N[C@@H](Cc1c[nH]cn1)C(=O)N[C@@H](CC(N)=O)C(=O)N[C@@H](Cc1ccc(O)cc1)C(N)=O)C(C)C)C(C)C [Structure 1, desamino[Nle^8,18,D-Trp^12,Lys^13 (N^ε --CO(CH2)2 -Phenyl),Tyr^34]bPTH(7-34)NH2] (Hydrocinnamoyl-[Nle]HNL[dW]K(Hydrocinnamoyl)HLSS[Nle]ERVEWLRKKLQDVHNY-NH2)	13 ± 2 nM
CCCCCC(=O)N[C@@H](Cc1c[nH]cn1)C(=O)N[C@@H](CC(N)=O)C(=O)N[C@@H](CC(C)C)C(=O)N[C@H](Cc1c[nH]c2ccccc12)C(=O)N[C@@H](CCCCNC(=O)CCc1ccccc1)C(=O)N[C@@H](Cc1c[nH]cn1)C(=O)N[C@@H](CC(C)C)C(=O)N[C@@H](CO)C(=O)N[C@@H](CO)C(=O)N[C@@H](CCCC)C(=O)N[C@@H](CCC(=O)O)C(=O)N[C@@H](CCCNC(=N)N)C(=O)N[C@H](C(=O)N[C@@H](CCC(=O)O)C(=O)N[C@@H](Cc1c[nH]c2ccccc12)C(=O)N[C@@H](CC(C)C)C(=O)N[C@@H](CCCNC(=N)N)C(=O)N[C@@H](CCCCN)C(=O)N[C@@H](CCCCN)C(=O)N[C@@H](CC(C)C)C(=O)N[C@@H](CCC(N)=O)C(=O)N[C@@H](CC(=O)O)C(=O)N[C@H](C(=O)N[C@@H](Cc1c[nH]cn1)C(=O)N[C@@H](CC(N)=O)C(=O)N[C@@H](Cc1ccc(O)cc1)C(N)=O)C(C)C)C(C)C [Structure 2, desamino[Nle^8,18,D-Trp^12,Lys^13 (N^ε --CO(CH2)2 -Phenyl),Tyr^34]bPTH(8-34)NH2] (Hexanoyl-HNL[dW]K(Hydrocinnamoyl)HLSS[Nle]ERVEWLRKKLQDVHNY-NH2)	4 ± 1 nM
CCCC[C@H](NC(=O)[C@H](CO)NC(=O)[C@H](CO)NC(=O)[C@H](CC(C)C)NC(=O)[C@H](Cc1c[nH]cn1)NC(=O)[C@H](CCCCNC(=O)CCc1ccccc1)NC(=O)[C@@H](Cc1c[nH]c2ccccc12)NC(=O)[C@H](CC(C)C)NC(=O)[C@H](CC(N)=O)NC(=O)[C@H](Cc1c[nH]cn1)NC(=O)[C@H](CCCC)NC(=O)[C@@H](N)Cc1ccccc1)C(=O)N[C@@H](CCC(=O)O)C(=O)N[C@@H](CCCNC(=N)N)C(=O)N[C@H](C(=O)N[C@@H](CCC(=O)O)C(=O)N[C@@H](Cc1c[nH]c2ccccc12)C(=O)N[C@@H](CC(C)C)C(=O)N[C@@H](CCCNC(=N)N)C(=O)N[C@@H](CCCCN)C(=O)N[C@@H](CCCCN)C(=O)N[C@@H](CC(C)C)C(=O)N[C@@H](CCC(N)=O)C(=O)N[C@@H](CC(=O)O)C(=O)N[C@H](C(=O)N[C@@H](Cc1c[nH]cn1)C(=O)N[C@@H](CC(N)=O)C(=O)N[C@@H](Cc1ccc(O)cc1)C(N)=O)C(C)C)C(C)C [Structure 3, [Nle^8,18,D-Trp^12,Lys^13 (N^ε --CO(CH2)2 -Phenyl),Tyr^34]bPTH(7-34)NH2]	4 ± 1 nM
CCCC[C@H](NC(=O)[C@H](CO)NC(=O)[C@H](CO)NC(=O)[C@H](CC(C)C)NC(=O)[C@H](Cc1c[nH]cn1)NC(=O)[C@H](CCCCN(CC(C)C)CC(C)C)NC(=O)[C@@H](Cc1c[nH]c2ccccc12)NC(=O)[C@H](CC(C)C)NC(=O)[C@H](CC(N)=O)NC(=O)[C@H](Cc1c[nH]cn1)NC(=O)[C@H](CCCC)NC(=O)[C@@H](N)Cc1ccccc1)C(=O)N[C@@H](CCC(=O)O)C(=O)N[C@@H](CCCNC(=N)N)C(=O)N[C@H](C(=O)N[C@@H](CCC(=O)O)C(=O)N[C@@H](Cc1c[nH]c2ccccc12)C(=O)N[C@@H](CC(C)C)C(=O)N[C@@H](CCCNC(=N)N)C(=O)N[C@@H](CCCCN)C(=O)N[C@@H](CCCCN)C(=O)N[C@@H](CC(C)C)C(=O)N[C@@H](CCC(N)=O)C(=O)N[C@@H](CC(=O)O)C(=O)N[C@H](C(=O)N[C@@H](Cc1c[nH]cn1)C(=O)N[C@@H](CC(N)=O)C(=O)N[C@@H](Cc1ccc(O)cc1)C(N)=O)C(C)C)C(C)C [Structure 4, [Nle^8,18,D-Trp^12,Lys^13 (N^ε,N^ε -diisobutyl),Tyr^34]bPTH(7-34)NH2]	35 ± 4 nM

Source: patent US5093233A, “Antagonists with position 13 modification” (Merck & Co., Inc., priority 1990, dated 1992)
